In BindingDB's records for doi:10.1021/ml300038t (2012) one finds IC50 data, which are given here for two compounds.

The target of this assay is T1, 4,4'-diapophytoene synthase (Staphylococcus aureus, UniProt A9JQL9).
T1 sequence (A9JQL9 whole entry): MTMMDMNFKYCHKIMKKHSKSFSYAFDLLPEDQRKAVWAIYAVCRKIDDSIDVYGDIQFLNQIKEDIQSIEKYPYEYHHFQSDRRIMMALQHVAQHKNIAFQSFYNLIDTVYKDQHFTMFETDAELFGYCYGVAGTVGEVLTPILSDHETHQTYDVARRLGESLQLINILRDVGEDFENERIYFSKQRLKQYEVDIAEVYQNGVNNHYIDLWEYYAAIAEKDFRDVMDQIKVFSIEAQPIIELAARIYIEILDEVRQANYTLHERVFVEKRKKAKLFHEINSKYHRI
The assay can be described thus: Inhibition of Staphylococcus aureus His6-tagged CrtM expressed in Escherichia coli BL21(DE3) using Farnesyl pyrophosphate as substrate incubated for 30 mins prior to substrate addition by continuous spectrophotometric assay.

Some results are limits rather than exact numbers.

Compound `CCCCCCCCOc1ccc(C(=O)CC(=O)C(=O)O)cc1` showed a half-inhibitory concentration (IC50) of over 300 µM.

Compound `CCCCCCOc1cccc(CCCNC(=O)CC(=O)C(=O)O)c1` displayed an IC50 of over 300 µM.

For orientation: IC50 means the concentration at which inhibition is half-maximal. High values mean weaker potency, low ones greater potency.
